Calls of active or inactive are those of the source. The calls are words filed in the database; no cut-off is given here.
Experiments:
HCT-116 [1] = experiment: Cytotoxicity against human HCT-116 cells assessed as inhibition of cell proliferation at 20 ug/ml incubated for 48 hrs by MTS assay; format: functional, cell-based; conditions: dose 20.0 µg/ml
HepG2 [2] = experiment: Cytotoxicity against human HepG2 cells assessed as inhibition of cell proliferation at 20 ug/ml incubated for 48 hrs by MTS assay; format: functional, cell-based; conditions: dose 20.0 µg/ml
B16 [3] = experiment: Cytotoxicity against mouse B16 cells assessed as inhibition of cell proliferation at 20 ug/ml incubated for 48 hrs by MTS assay; format: functional, cell-based; conditions: dose 20.0 µg/ml
Saccharomyces cerevisiae = experiment: Antimicrobial activity against Saccharomyces cerevisiae assessed as fungal growth inhibition by absorbance based assay; format: functional, organism-based
Candida albicans = experiment: Antimicrobial activity against Candida albicans assessed as fungal growth inhibition by absorbance based assay; format: functional, organism-based
Bacillus subtilis = experiment: Antimicrobial activity against Bacillus subtilis assessed as bacterial growth inhibition incubated for 24 hrs by absorbance based assay; format: functional, organism-based
Staphylococcus aureus = experiment: Antimicrobial activity against Staphylococcus aureus assessed as bacterial growth inhibition incubated for 24 hrs by absorbance based assay; format: functional, organism-based
Escherichia coli = experiment: Antimicrobial activity against Escherichia coli assessed as bacterial growth inhibition incubated for 24 hrs by absorbance based assay; format: functional, organism-based
HCT-116 [4] = experiment: Cytotoxicity against human HCT-116 cells assessed as inhibition of cell proliferation incubated for 48 hrs by MTS assay; format: functional, cell-based; conditions: HCT-116, 48 h
HepG2 [5] = experiment: Cytotoxicity against human HepG2 cells assessed as inhibition of cell proliferation incubated for 48 hrs by MTS assay; format: functional, cell-based; conditions: HepG2, 48 h
B16 [6] = experiment: Cytotoxicity against mouse B16 cells assessed as inhibition of cell proliferation incubated for 48 hrs by MTS assay; format: functional, cell-based; conditions: B16, 48 h

SMILES	inhibition (HCT-116 [1])	inhibition (HepG2 [2])	inhibition (B16 [3])	inhibition (Saccharomyces cerevisiae)	inhibition (Candida albicans)	inhibition (Bacillus subtilis)	inhibition (Staphylococcus aureus)	inhibition (Escherichia coli)	IC50 (HCT-116 [4]) [µM]	IC50 (HepG2 [5]) [µM]	IC50 (B16 [6]) [µM]
C/C=C/CC[C@@H](O)[C@H](O)c1cc(OC)cc(=O)o1	inactive	inactive	inactive	inactive	inactive	inactive	inactive	inactive	–	–	–
CCCCC[C@@H](O)[C@H](O)c1cc(OC)cc(=O)o1	inactive	inactive	inactive	inactive	inactive	inactive	inactive	inactive	–	–	–
CCCCC/C=C/c1cc(OC)cc(=O)o1	inactive	inactive	inactive	inactive	inactive	inactive	inactive	inactive	–	–	–
C/C=C/CC/C=C/c1cc(OC)cc(=O)o1	–	–	–	inactive	inactive	inactive	inactive	inactive	21.7	41.8	38.5

Source: ChEMBL document CHEMBL5390268, “α-Pyrone Derivatives from Calcarisporium arbuscula Discovered by Genome Mining” (J Nat Prod, 2023)
